Like-named read-outs stand apart in the source and are kept apart here.
Experiments:
[1] = biological target: T1, TRPV1 (Homo sapiens, UniProt Q8NER1); conditions: cited from earlier work
T1 construct: expressed in transfected cells

[2] = system: mice; assay: body weight gain in mice with chronic ingestion (FIG. 3); type: in vivo; conditions: mice chronically fed high fat diet containing 0.2 wt %, vs same diet without
[3] = system: mice; assay: short term food intake after a single ingestion in mice (FIG. 5); type: in vivo; conditions: vs sham gavage
[4] = system: mice; assay: gastric emptying after a single ingestion in mice (FIG. 6); type: in vivo; conditions: vs sham gavage
[5] = biological target: T2, TRPM8 (Homo sapiens, UniProt Q7Z2W7); conditions: cited from earlier work
T2 construct: expressed in transfected cells

[6] = biological target: T3, TRPA1 (Homo sapiens, UniProt O75762); conditions: read-out: EC50 of TRPA1 activation; cited from earlier work
T3 construct: expressed in transfected cells

[7] = system: mice; assay: insulin sensitivity in mice with chronic ingestion (FIG. 4); type: in vivo; conditions: mice chronically fed high fat diet containing 0.2 wt %, vs same diet without
[8] = biological target: T3, TRPA1; assay: in vitro activation of TRPA1 in cells (FIG. 7); type: cell-based
[9] = biological target: T2, TRPM8; assay: in vitro activation of hTRPM8 in cells (FIG. 7); type: cell-based; conditions: FIG. 7, squares
[10] = biological target: T2, TRPM8; assay: desensitization of TRPM8 by pretreatment fifteen minutes before icilin (FIGS. 8A, 8B); type: cell-based; conditions: applied to cells fifteen minutes before icilin
Method: (§1) Specifically, tiglic aldehyde was applied to cells fifteen minutes before cinnamaldehyde, icilin and capsaicin, which are specific agonists for TRPA1, TRPM8 and TRPV1 cation channels, respectively. After specific agonist application, the cation channel […] was measured. […] The left bars in each graph represent the controls lacking tiglic aldehyde pretreatment, the right bars in each graph represent the samples including tiglic aldehyde pretreatment.

[11] = Description: Without wishing to be bound by theory, the present inventors believe that activation of TRPA1 is effective to 1) help to provoke the swallowing reflex of dysphagic patients, 2) decrease appetite by delaying gastric emptying, 3) reduce body weight gain, and 4) reduce glycemia by improving insulin sensitivity or glucose tolerance, 5) improve mood, memory or cognition. Tiglic aldehyde is described as having fresh, fruity, green, pulpy and almond nutty nuances (Fenaroli's Handbook of Flavor Ingredients, sixth edition), making it more pleasant compared to other TRPA1 agonists.
[12] = biological target: T1, TRPV1; assay: in vitro activation of TRPV1 in cells (FIG. 7); type: cell-based; conditions: FIG. 7, triangles
[13] = biological target: T1, TRPV1; assay: desensitization of TRPV1 by pretreatment fifteen minutes before capsaicin (FIGS. 8A, 8B); type: cell-based; conditions: applied to cells fifteen minutes before capsaicin
Method: as §1

[14] = system: "empty" cells; assay: in vitro activation of "empty" cells (FIG. 7); type: cell-based
[15] = biological target: T3, TRPA1; assay: desensitization of TRPA1 by pretreatment fifteen minutes before cinnamaldehyde (FIGS. 8A, 8B); type: cell-based; conditions: applied to cells fifteen minutes before cinnamaldehyde
Method: as §1

T2 sequence (Q7Z2W7 whole entry): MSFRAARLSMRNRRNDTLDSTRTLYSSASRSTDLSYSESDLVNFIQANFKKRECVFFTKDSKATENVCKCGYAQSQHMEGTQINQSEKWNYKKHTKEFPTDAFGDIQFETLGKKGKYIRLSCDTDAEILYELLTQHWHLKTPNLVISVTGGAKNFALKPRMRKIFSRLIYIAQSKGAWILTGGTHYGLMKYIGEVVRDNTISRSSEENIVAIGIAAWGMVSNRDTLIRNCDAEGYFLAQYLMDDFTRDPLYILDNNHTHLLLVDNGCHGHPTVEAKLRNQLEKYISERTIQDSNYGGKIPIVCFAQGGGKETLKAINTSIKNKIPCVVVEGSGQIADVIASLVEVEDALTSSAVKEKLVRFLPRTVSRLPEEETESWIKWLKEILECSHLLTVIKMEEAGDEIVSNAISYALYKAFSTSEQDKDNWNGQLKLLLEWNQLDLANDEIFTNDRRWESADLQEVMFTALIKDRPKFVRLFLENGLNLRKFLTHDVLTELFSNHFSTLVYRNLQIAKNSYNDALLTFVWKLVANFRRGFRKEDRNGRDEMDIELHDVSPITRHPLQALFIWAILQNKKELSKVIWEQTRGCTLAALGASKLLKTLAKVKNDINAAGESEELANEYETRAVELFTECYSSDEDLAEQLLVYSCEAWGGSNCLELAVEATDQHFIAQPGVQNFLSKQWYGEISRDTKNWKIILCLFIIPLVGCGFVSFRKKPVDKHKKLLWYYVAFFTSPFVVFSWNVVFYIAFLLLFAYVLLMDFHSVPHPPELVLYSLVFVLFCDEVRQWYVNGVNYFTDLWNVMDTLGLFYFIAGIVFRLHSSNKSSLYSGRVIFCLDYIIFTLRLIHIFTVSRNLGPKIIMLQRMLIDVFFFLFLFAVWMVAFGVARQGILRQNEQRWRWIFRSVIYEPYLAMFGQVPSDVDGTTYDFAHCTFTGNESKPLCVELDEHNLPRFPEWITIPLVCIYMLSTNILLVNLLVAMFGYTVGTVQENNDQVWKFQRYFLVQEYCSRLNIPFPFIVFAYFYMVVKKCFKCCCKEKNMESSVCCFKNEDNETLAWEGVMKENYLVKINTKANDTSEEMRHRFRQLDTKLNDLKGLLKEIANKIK
T3 sequence (O75762 whole entry, species assumed): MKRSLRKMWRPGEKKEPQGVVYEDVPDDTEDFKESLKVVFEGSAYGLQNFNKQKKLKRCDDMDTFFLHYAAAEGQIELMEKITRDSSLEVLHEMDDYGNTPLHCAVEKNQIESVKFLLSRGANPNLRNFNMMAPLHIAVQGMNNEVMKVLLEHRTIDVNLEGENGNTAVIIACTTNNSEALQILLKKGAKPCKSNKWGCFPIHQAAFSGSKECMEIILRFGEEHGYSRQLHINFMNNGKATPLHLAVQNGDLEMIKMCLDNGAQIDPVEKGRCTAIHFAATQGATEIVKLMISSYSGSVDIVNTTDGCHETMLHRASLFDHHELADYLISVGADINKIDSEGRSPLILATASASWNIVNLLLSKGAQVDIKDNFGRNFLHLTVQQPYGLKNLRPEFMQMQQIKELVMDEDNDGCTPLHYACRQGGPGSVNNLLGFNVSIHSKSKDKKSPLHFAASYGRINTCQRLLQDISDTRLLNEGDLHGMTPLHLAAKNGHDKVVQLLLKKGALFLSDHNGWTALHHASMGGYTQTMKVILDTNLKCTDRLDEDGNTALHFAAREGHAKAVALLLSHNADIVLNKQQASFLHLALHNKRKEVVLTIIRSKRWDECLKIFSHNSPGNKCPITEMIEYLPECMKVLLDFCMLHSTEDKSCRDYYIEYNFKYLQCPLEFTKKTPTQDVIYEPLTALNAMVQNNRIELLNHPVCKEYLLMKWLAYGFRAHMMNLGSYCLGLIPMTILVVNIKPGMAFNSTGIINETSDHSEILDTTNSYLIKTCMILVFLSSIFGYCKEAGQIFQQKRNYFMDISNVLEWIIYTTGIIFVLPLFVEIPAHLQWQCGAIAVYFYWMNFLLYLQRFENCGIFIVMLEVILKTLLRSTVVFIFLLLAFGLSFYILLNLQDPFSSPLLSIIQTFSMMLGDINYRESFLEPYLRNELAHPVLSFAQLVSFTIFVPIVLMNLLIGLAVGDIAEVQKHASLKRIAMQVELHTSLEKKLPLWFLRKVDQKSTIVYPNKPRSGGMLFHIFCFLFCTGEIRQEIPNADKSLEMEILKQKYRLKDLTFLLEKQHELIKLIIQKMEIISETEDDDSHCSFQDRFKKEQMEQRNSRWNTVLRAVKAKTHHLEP
T1 sequence (Q8NER1 whole entry, species assumed): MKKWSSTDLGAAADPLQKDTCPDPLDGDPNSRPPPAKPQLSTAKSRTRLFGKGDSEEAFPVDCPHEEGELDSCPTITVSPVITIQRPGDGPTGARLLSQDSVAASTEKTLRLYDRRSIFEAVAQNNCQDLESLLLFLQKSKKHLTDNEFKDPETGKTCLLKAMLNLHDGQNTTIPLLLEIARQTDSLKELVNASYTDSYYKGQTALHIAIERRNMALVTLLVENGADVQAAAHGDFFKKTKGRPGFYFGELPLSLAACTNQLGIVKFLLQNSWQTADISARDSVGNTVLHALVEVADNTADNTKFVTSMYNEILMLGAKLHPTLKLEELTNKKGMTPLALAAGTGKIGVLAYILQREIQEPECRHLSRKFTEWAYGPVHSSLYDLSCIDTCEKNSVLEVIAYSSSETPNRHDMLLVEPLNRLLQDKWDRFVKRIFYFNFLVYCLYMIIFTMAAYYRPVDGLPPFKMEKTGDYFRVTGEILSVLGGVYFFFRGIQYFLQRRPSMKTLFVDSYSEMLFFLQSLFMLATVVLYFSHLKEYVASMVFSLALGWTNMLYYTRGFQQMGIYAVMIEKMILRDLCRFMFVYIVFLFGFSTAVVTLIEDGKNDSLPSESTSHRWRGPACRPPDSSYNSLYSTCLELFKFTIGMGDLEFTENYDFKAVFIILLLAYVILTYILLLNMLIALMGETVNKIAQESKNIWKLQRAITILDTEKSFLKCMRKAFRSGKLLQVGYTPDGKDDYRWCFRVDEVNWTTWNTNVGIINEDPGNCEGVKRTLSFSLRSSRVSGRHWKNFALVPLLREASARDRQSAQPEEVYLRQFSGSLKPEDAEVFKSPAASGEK

In the case of O=CC=Cc1ccccc1 [cinnamaldehyde], the “activation of TRPV1” value [1] is given as “not”, the body weight gain [2] is given as “gained less weight” and the “short term food intake” value [3] is given as “reduction in short term food intake”. For the same molecule, the gastric emptying [4] was “delayed gastric emptying”, the “activation of TRPM8” value [5] was “not” and the EC50 [6] was about 60 µM. For the same molecule, the insulin sensitivity [7] was “improved insulin sensitivity”.

For C/C=C(\C)C=O [tiglic aldehyde], the “activation of TRPA1” value ([8]; FIG. 7, diamonds) was “activated TRPA1 (diamonds) in a dose-dependent fashion”, the “efficacy of TRPA1 activation relative to cinnamaldehyde” value ([8]; relative to known TRPA1 agonist cinnamaldehyde) was 120% and the “activation of hTRPM8” value [9] was “no activation was observed”. The “desensitization of TRPM8” value [10] was “does not desensitize”, the irritancy [11] was “not an irritant” and the “activation of TRPV1” value [12] was “no activation was observed”. The “desensitization of TRPV1” value [13] was “does not desensitize”, the “activation of "empty" cells” value [14] was “no activation was observed” and the “desensitization of TRPA1” value [15] was “does not desensitize”.
